Test results taken from US20030133905A1, “Composition for treating contact lenses in the eye” (priority 2001, published 2003).

Molecular target: T1, hen egg lysozyme (Gallus gallus, UniProt P00698)
T1 construct: 1 mg/ml of hen egg lysozyme; from tissue; host or cells: hen egg
Assay: Stabilization of lysozyme against heat denaturation, read out as lysis of M. luteus suspension (optical density at 450 nm)
Type: biochemical
Details: saline with 20 mM buffering agent
Procedure: Each solution included saline and 20 mM of buffering agent as identified in Table 1 below. To each test solution was added 1 mg/ml of hen egg lysozyme as well as a phosphate buffered saline (PBS) control. The test solutions were mixed slowly with a stir bar until the lysozyme was incorporated into the solutions. Five ml of each lysozyme-containing test solution was retained as the unheated control. The remaining 5 ml of each lysozyme-containing test solution were placed in glass lens vials, capped with silicone stoppers and incubated in a shaking water bath at 80° C., 40 revolutions per minute (rpm) for 1 hour. These heating conditions are sufficient to denature the lysozyme, absent a stabilization effect provided by the buffering agents. The vials were allowed to come to ambient temperature before testing. A 0.00025g/ml suspension of M. luteus was prepared from lyophilized cells in PBS. The suspension was continually mixed on a stir plate during the testing period to prevent the suspension from settling. For each set of test solutions, the following were tested (sample): a heated lysozyme-containing test solution (“lysozyme+heat”); an unheated lysozyme-containing test solution (“lysozyme/no heat”); and a test solution without lysozyme (“no lysozyme”). One ml of each sample was placed into a glass test tube to which 9 ml of M. luteus suspension was added and vortexed. A 1-ml sub-sample was placed into a disposable cuvette and evaluated on a UV-vis spectrophotometer at 450 nm. This procedure was performed for each sample at 0, 5 and 10 minutes. Each of the solutions was evaluated in triplicate. Each of the three optical density measurements from the triplicate samples was averaged. […] As shown by the test data set forth below in the Table 3, the lens drop solutions containing tromethamine were very effective at stabilizing the protein against denaturation.

[1] = lysozyme + heat (80° C., 1 hour), 1 mg/ml lysozyme
[2] = lysozyme/no heat, 1 mg/ml lysozyme, M. luteus suspension

T1 sequence (P00698 19-147): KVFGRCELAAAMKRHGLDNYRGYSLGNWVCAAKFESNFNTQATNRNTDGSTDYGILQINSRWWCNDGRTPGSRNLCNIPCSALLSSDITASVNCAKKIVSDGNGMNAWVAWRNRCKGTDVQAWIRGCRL

optical density at 450 nm, Time 0 Min [1]	optical density at 450 nm, Time 5 Min [1]	optical density at 450 nm, Time 10 Min [1]	optical density at 450 nm, Time 0 Min [2]	optical density at 450 nm, Time 5 Min [2]	optical density at 450 nm, Time 10 Min [2]	optical density at 450 nm, Time 0 Min (no lysozyme)	optical density at 450 nm, Time 5 Min (no lysozyme)	optical density at 450 nm, Time 10 Min (no lysozyme)	Compound
0.810	0.154	0.117	0.654	0.048	0.028	0.859	0.854	0.854	NC(CO)(CO)CO [Tris, 2-amino-2-hydroxymethyl-1,3-propanediol]
0.861	0.858	0.852	0.634	0.052	0.029	0.856	0.852	0.854	Phosphate
0.877	0.851	0.785	0.654	0.049	0.030	0.857	0.850	0.850	O=C(O)CC(O)(CC(=O)O)C(=O)O [Citrate]

Compound	optical density at 450 nm, Time 0 Min [1]	optical density at 450 nm, Time 5 Min [1]	optical density at 450 nm, Time 10 Min [1]	optical density at 450 nm, Time 0 Min [2]	optical density at 450 nm, Time 5 Min [2]	optical density at 450 nm, Time 10 Min [2]	optical density at 450 nm, Time 0 Min (no lysozyme)	optical density at 450 nm, Time 5 Min (no lysozyme)	optical density at 450 nm, Time 10 Min (no lysozyme)
Borate	0.872	0.681	0.390	0.619	0.053	0.034	0.853	0.853	0.854
